Species: Rattus norvegicus
Experiment: Open TG-GATES - Regimen: Single
Format: toxicity, organism-based, Sprague-Dawley
Parameters: regimen Single, gender Male, age 6 weeks
Settings: in vivo, po, route gavage; for APTT / Bas / Eos / Fbg / Hb / Ht / Lym / MCH / MCHC / MCV / Mono / Neu / PT / Plat / RBC / Ret / WBC: tissue Blood; for KIDNEY_L / KIDNEY_R / KIDNEY_TOTAL: tissue Kidney; for LIVER: tissue Liver; for A/G / ALP / ALT / AST / BUN / CRE / Ca / Cl / DBIL / GLC / IP / K / LDH / Na / PL / RALB / TBIL / TC / TG / TP / gamma-GTP: tissue Plasma
[1] = 0 mg/kg, 3 h, dose level Control
[2] = 0 mg/kg, 6 h, dose level Control
[3] = 0 mg/kg, 9 h, dose level Control
[4] = 0 mg/kg, 24 h, dose level Control

## CCOC(=O)[C@H](CCc1ccccc1)N[C@@H](C)C(=O)N1CCC[C@H]1C(=O)O
[1]
  TERMINAL_BW: 219.5 g
  APTT: 16.4 s
  Bas: 0%
  Eos: 1%
  Fbg: 205.6 mg/dL
  Hb: 13.1 g/dL
  Ht: 39.6%
  Lym: 78.2%
  MCH: 21.9 pg
  MCHC: 33%
  MCV: 66.3 fL
  Mono: 8.2%
  Neu: 13%
  PT: 12.1 s
  Plat: 115.4 x10_4/uL
  RBC: 596.8 x10_4/ul
  Ret: 9.2%
  WBC: 96.8 x10_2/uL
  KIDNEY_L: 1 g
  KIDNEY_R: 1 g
  KIDNEY_TOTAL: 2 g
  LIVER: 10.5 g
  A/G: 2.2
  ALP: 725.4 IU/L
  ALT: 37.6 IU/L
  AST: 66.2 IU/L
  BUN: 13.8 mg/dL
  CRE: 0.5 mg/dL
  Ca: 11 mg/dL
  Cl: 105.4 meq/L
  DBIL: 0.008 mg/dL
  GLC: 196.6 mg/dL
  IP: 10.2 mg/dL
  K: 4.8 meq/L
  LDH: 79.2 IU/L
  Na: 140.2 meq/L
  PL: 146 mg/dL
  RALB: 3.7 g/dL
  TBIL: 0.3 mg/dL
  TC: 77 mg/dL
  TG: 70.8 mg/dL
  TP: 5.3 g/dL
  gamma-GTP: 1.4 IU/L
[2]
  TERMINAL_BW: 212.8 g
  APTT: 16.4 s
  Bas: 0%
  Eos: 1%
  Fbg: 205.2 mg/dL
  Hb: 13.2 g/dL
  Ht: 39.9%
  Lym: 76.2%
  MCH: 21.6 pg
  MCHC: 33%
  MCV: 65.4 fL
  Mono: 6.4%
  Neu: 16.6%
  PT: 12.2 s
  Plat: 116.2 x10_4/uL
  RBC: 609.4 x10_4/ul
  Ret: 8.4%
  WBC: 118.4 x10_2/uL
  KIDNEY_L: 0.9 g
  KIDNEY_R: 0.9 g
  KIDNEY_TOTAL: 1.9 g
  LIVER: 9.5 g
  A/G: 2.2
  ALP: 837.6 IU/L
  ALT: 34.6 IU/L
  AST: 65.6 IU/L
  BUN: 9.8 mg/dL
  CRE: 0.5 mg/dL
  Ca: 10.8 mg/dL
  Cl: 105.2 meq/L
  DBIL: 0.022 mg/dL
  GLC: 198.6 mg/dL
  IP: 9.9 mg/dL
  K: 4.7 meq/L
  LDH: 74 IU/L
  Na: 139.4 meq/L
  PL: 130.6 mg/dL
  RALB: 3.7 g/dL
  TBIL: 0.4 mg/dL
  TC: 73 mg/dL
  TG: 46.8 mg/dL
  TP: 5.4 g/dL
  gamma-GTP: 1.6 IU/L
[3]
  TERMINAL_BW: 215 g
  APTT: 16.5 s
  Bas: 0%
  Eos: 1.2%
  Fbg: 215.4 mg/dL
  Hb: 13 g/dL
  Ht: 39.6%
  Lym: 81.4%
  MCH: 21.9 pg
  MCHC: 32.8%
  MCV: 66.8 fL
  Mono: 5%
  Neu: 12.8%
  PT: 11.7 s
  Plat: 112.2 x10_4/uL
  RBC: 593.2 x10_4/ul
  Ret: 8.7%
  WBC: 113.3 x10_2/uL
  KIDNEY_L: 1 g
  KIDNEY_R: 1 g
  KIDNEY_TOTAL: 1.9 g
  LIVER: 9.4 g
  A/G: 2.1
  ALP: 772.2 IU/L
  ALT: 31.2 IU/L
  AST: 60.8 IU/L
  BUN: 13.6 mg/dL
  CRE: 0.4 mg/dL
  Ca: 10.7 mg/dL
  Cl: 106.6 meq/L
  DBIL: 0.022 mg/dL
  GLC: 192.6 mg/dL
  IP: 10.1 mg/dL
  K: 4.8 meq/L
  LDH: 69.8 IU/L
  Na: 139 meq/L
  PL: 133.4 mg/dL
  RALB: 3.8 g/dL
  TBIL: 0.4 mg/dL
  TC: 69.6 mg/dL
  TG: 49.2 mg/dL
  TP: 5.5 g/dL
  gamma-GTP: 1.6 IU/L
[4]
  TERMINAL_BW: 230.9 g
  APTT: 16.3 s
  Bas: 0%
  Eos: 1.4%
  Fbg: 203.8 mg/dL
  Hb: 13.2 g/dL
  Ht: 39.8%
  Lym: 71.6%
  MCH: 21.6 pg
  MCHC: 33.1%
  MCV: 65.3 fL
  Mono: 8.2%
  Neu: 19%
  PT: 11.2 s
  Plat: 117.1 x10_4/uL
  RBC: 609.4 x10_4/ul
  Ret: 8.3%
  WBC: 114 x10_2/uL
  KIDNEY_L: 1.1 g
  KIDNEY_R: 1 g
  KIDNEY_TOTAL: 2.1 g
  LIVER: 11 g
  A/G: 2.4
  ALP: 834.2 IU/L
  ALT: 39.8 IU/L
  AST: 62.6 IU/L
  BUN: 18 mg/dL
  CRE: 0.5 mg/dL
  Ca: 10.9 mg/dL
  Cl: 106.4 meq/L
  DBIL: 0.012 mg/dL
  GLC: 198.8 mg/dL
  IP: 8.5 mg/dL
  K: 5.2 meq/L
  LDH: 86.4 IU/L
  Na: 141 meq/L
  PL: 155 mg/dL
  RALB: 3.9 g/dL
  TBIL: 0.4 mg/dL
  TC: 80 mg/dL
  TG: 84.6 mg/dL
  TP: 5.5 g/dL
  gamma-GTP: 1.2 IU/L
60 mg/kg, 3 h, dose level Low
  TERMINAL_BW: 218.9 g
  APTT: 15.9 s
  Bas: 0%
  Eos: 1%
  Fbg: 216 mg/dL
  Hb: 13.2 g/dL
  Ht: 40.3%
  Lym: 75.6%
  MCH: 21.3 pg
  MCHC: 32.8%
  MCV: 64.7 fL
  Mono: 9.4%
  Neu: 14%
  PT: 12 s
  Plat: 113.1 x10_4/uL
  RBC: 622.2 x10_4/ul
  Ret: 8.4%
  WBC: 113.3 x10_2/uL
  KIDNEY_L: 0.9 g
  KIDNEY_R: 0.9 g
  KIDNEY_TOTAL: 1.9 g
  LIVER: 10.3 g
  A/G: 1.9
  ALP: 851.2 IU/L
  ALT: 38.6 IU/L
  AST: 65.6 IU/L
  BUN: 18.2 mg/dL
  CRE: 0.5 mg/dL
  Ca: 11 mg/dL
  Cl: 106 meq/L
  DBIL: 0.018 mg/dL
  GLC: 203.8 mg/dL
  IP: 9.8 mg/dL
  K: 5.3 meq/L
  LDH: 85 IU/L
  Na: 138.8 meq/L
  PL: 142.2 mg/dL
  RALB: 3.4 g/dL
  TBIL: 0.3 mg/dL
  TC: 84 mg/dL
  TG: 52.2 mg/dL
  TP: 5.3 g/dL
  gamma-GTP: 1.8 IU/L
60 mg/kg, 6 h, dose level Low
  TERMINAL_BW: 221.6 g
  APTT: 15.7 s
  Bas: 0%
  Eos: 1%
  Fbg: 200 mg/dL
  Hb: 13.1 g/dL
  Ht: 39.2%
  Lym: 79.8%
  MCH: 21.7 pg
  MCHC: 33.3%
  MCV: 65.2 fL
  Mono: 5.2%
  Neu: 14.6%
  PT: 12 s
  Plat: 110.6 x10_4/uL
  RBC: 602.6 x10_4/ul
  Ret: 9.2%
  WBC: 122.1 x10_2/uL
  KIDNEY_L: 1 g
  KIDNEY_R: 1 g
  KIDNEY_TOTAL: 2 g
  LIVER: 9.9 g
  A/G: 2.2
  ALP: 728.2 IU/L
  ALT: 36.2 IU/L
  AST: 60.4 IU/L
  BUN: 22 mg/dL
  CRE: 0.5 mg/dL
  Ca: 11.1 mg/dL
  Cl: 104.8 meq/L
  DBIL: 0.054 mg/dL
  GLC: 196 mg/dL
  IP: 10.9 mg/dL
  K: 4.9 meq/L
  LDH: 85.2 IU/L
  Na: 139.4 meq/L
  PL: 136 mg/dL
  RALB: 3.6 g/dL
  TBIL: 0.5 mg/dL
  TC: 78.2 mg/dL
  TG: 44.4 mg/dL
  TP: 5.3 g/dL
  gamma-GTP: 1.4 IU/L
60 mg/kg, 9 h, dose level Low
  TERMINAL_BW: 216 g
  APTT: 16.1 s
  Bas: 0%
  Eos: 1.2%
  Fbg: 195 mg/dL
  Hb: 12.7 g/dL
  Ht: 39.1%
  Lym: 77%
  MCH: 21.6 pg
  MCHC: 32.6%
  MCV: 66.3 fL
  Mono: 4.4%
  Neu: 17%
  PT: 11.7 s
  Plat: 111.5 x10_4/uL
  RBC: 590 x10_4/ul
  Ret: 8.6%
  WBC: 87.4 x10_2/uL
  KIDNEY_L: 1 g
  KIDNEY_R: 1 g
  KIDNEY_TOTAL: 2 g
  LIVER: 9.2 g
  A/G: 1.9
  ALP: 839.6 IU/L
  ALT: 33.2 IU/L
  AST: 69 IU/L
  BUN: 20.2 mg/dL
  CRE: 0.4 mg/dL
  Ca: 10.6 mg/dL
  Cl: 107 meq/L
  DBIL: 0.02 mg/dL
  GLC: 193.4 mg/dL
  IP: 11 mg/dL
  K: 5.1 meq/L
  LDH: 89.4 IU/L
  Na: 138.4 meq/L
  PL: 122.2 mg/dL
  RALB: 3.5 g/dL
  TBIL: 0.4 mg/dL
  TC: 66.8 mg/dL
  TG: 57 mg/dL
  TP: 5.3 g/dL
  gamma-GTP: 1.6 IU/L
60 mg/kg, 24 h, dose level Low
  TERMINAL_BW: 228.5 g
  APTT: 16.3 s
  Bas: 0%
  Eos: 1.4%
  Fbg: 220 mg/dL
  Hb: 12.9 g/dL
  Ht: 39.1%
  Lym: 79.6%
  MCH: 21.5 pg
  MCHC: 33.2%
  MCV: 65 fL
  Mono: 5.4%
  Neu: 14%
  PT: 11 s
  Plat: 114.8 x10_4/uL
  RBC: 602.4 x10_4/ul
  Ret: 8.9%
  WBC: 88.3 x10_2/uL
  KIDNEY_L: 1 g
  KIDNEY_R: 1 g
  KIDNEY_TOTAL: 2.1 g
  LIVER: 11.3 g
  A/G: 2.1
  ALP: 986.4 IU/L
  ALT: 39.2 IU/L
  AST: 61.4 IU/L
  BUN: 16.8 mg/dL
  CRE: 0.5 mg/dL
  Ca: 11.1 mg/dL
  Cl: 104.6 meq/L
  DBIL: 0.006 mg/dL
  GLC: 202.4 mg/dL
  IP: 8.6 mg/dL
  K: 5.4 meq/L
  LDH: 110.4 IU/L
  Na: 138.6 meq/L
  PL: 157.2 mg/dL
  RALB: 3.9 g/dL
  TBIL: 0.4 mg/dL
  TC: 89.4 mg/dL
  TG: 94.6 mg/dL
  TP: 5.8 g/dL
  gamma-GTP: 1.8 IU/L

— ChEMBL document CHEMBL3885861, “Open TG-GATES”
